Results published in ChEMBL document CHEMBL1201862, “PubChem BioAssay data set” (2004).
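A five-concentration, 48-hour dose response in 96-well plates underlies each endpoint, interpolated linearly between surrounding concentrations. GI50: concentration for 50% inhibition of growth.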 Active and inactive are the calls of the source. Rule as the data show it: active = GI50 up to about 1.1 µM and inactive = higher.

Columns and labels:
Experiment in all cases: growth of human tumour cells (NCI), 48 h
SK-OV-3 = system: SK-OV-3
CAKI-1 = system: CAKI-1
U-251 = system: U-251
SF-268 = system: SF-268
OVCAR-8 = system: OVCAR-8
HT-29 = system: HT-29
SK-MEL-2 = system: SK-MEL-2
M14 = system: M14
SF-295 = system: SF-295
RPMI-8226 = system: RPMI-8226
RXF 393 = system: RXF 393
HCT-15 = system: HCT-15
TK-10 = system: TK-10
MOLT-4 = system: MOLT-4
SR = system: SR
Malme-3M = system: Malme-3M
HOP-62 = system: HOP-62
DU-145 = system: DU-145
T47D = system: T47D

| SMILES | GI50 (SK-OV-3) | GI50 (CAKI-1) | GI50 (U-251) | GI50 (SF-268) | GI50 (OVCAR-8) | GI50 (HT-29) | GI50 (SK-MEL-2) | GI50 (M14) | GI50 (SF-295) | GI50 (RPMI-8226) | GI50 (RXF 393) | GI50 (HCT-15) [µM] | GI50 (TK-10) | GI50 (MOLT-4) | GI50 (SR) | GI50 (Malme-3M) | GI50 (HOP-62) | GI50 (DU-145) | GI50 (T47D) |
| --- | --- | --- | --- | --- | --- | --- | --- | --- | --- | --- | --- | --- | --- | --- | --- | --- | --- | --- | --- |
| COC1OC(CO)C(O)C(NC(=O)N(C)N=O)C1O (centres undefined) | > 100 µM (inactive) | > 100 µM (inactive) | > 100 µM (inactive) | > 100 µM (inactive) | > 100 µM (inactive) | > 100 µM (inactive) | > 100 µM (inactive) | > 100 µM (inactive) | > 100 µM (inactive) | > 100 µM (inactive) | > 100 µM (inactive) | > 100 | > 100 µM (inactive) | > 100 µM (inactive) | > 100 µM (inactive) | > 100 µM (inactive) | – | – | – |
| CC1(C)C(CCO)CC1n1ccc(=O)[nH]c1=O (centres undefined) | > 100 µM (inactive) | > 100 µM (inactive) | > 100 µM (inactive) | > 100 µM (inactive) | – | – | > 100 µM (inactive) | > 100 µM (inactive) | > 100 µM (inactive) | – | > 100 µM (inactive) | > 100 | > 100 µM (inactive) | – | – | – | > 100 µM (inactive) | > 100 µM (inactive) | > 100 µM (inactive) |
| C[C@H](c1ccccc1)N1C(=O)[C@@H](O)[C@H]1[C@H](CO)OCc1ccccc1 | > 100 µM (inactive) | – | > 100 µM (inactive) | > 100 µM (inactive) | > 100 µM (inactive) | > 100 µM (inactive) | > 100 µM (inactive) | > 100 µM (inactive) | 95.3 µM (inactive) | > 100 µM (inactive) | – | > 100 | > 100 µM (inactive) | > 100 µM (inactive) | > 100 µM (inactive) | > 100 µM (inactive) | > 100 µM (inactive) | > 100 µM (inactive) | – |
| N=C(N)/N=C(\N)Nc1cnccn1 | > 100 µM (inactive) | > 100 µM (inactive) | > 100 µM (inactive) | – | > 100 µM (inactive) | > 100 µM (inactive) | > 100 µM (inactive) | > 100 µM (inactive) | > 100 µM (inactive) | – | > 100 µM (inactive) | > 100 | > 100 µM (inactive) | > 100 µM (inactive) | – | > 100 µM (inactive) | > 100 µM (inactive) | > 100 µM (inactive) | > 100 µM (inactive) |
| O=C1/C(=C/c2ccccc2)NC(=S)N1CN1CCCCC1 | > 100 µM (inactive) | – | > 100 µM (inactive) | > 100 µM (inactive) | > 100 µM (inactive) | > 100 µM (inactive) | > 100 µM (inactive) | > 100 µM (inactive) | > 100 µM (inactive) | > 100 µM (inactive) | – | > 100 | – | > 100 µM (inactive) | > 100 µM (inactive) | – | > 100 µM (inactive) | > 100 µM (inactive) | – |
| COc1ccc(N2C(=O)[C@@H](N=[N+]=[N-])[C@@H]2[C@H]2COC(C)(C)O2)cc1 | > 100 µM (inactive) | > 100 µM (inactive) | > 100 µM (inactive) | > 100 µM (inactive) | > 100 µM (inactive) | > 100 µM (inactive) | > 100 µM (inactive) | > 100 µM (inactive) | > 100 µM (inactive) | > 100 µM (inactive) | > 100 µM (inactive) | > 100 | – | > 100 µM (inactive) | > 100 µM (inactive) | > 100 µM (inactive) | > 100 µM (inactive) | – | – |
| Brc1ccc(-c2cc(-c3ccc4c(c3)OCO4)c(-c3cccs3)n2Cc2ccccc2)cc1 | > 100 µM (inactive) | > 100 µM (inactive) | > 100 µM (inactive) | > 100 µM (inactive) | > 100 µM (inactive) | > 100 µM (inactive) | > 100 µM (inactive) | > 100 µM (inactive) | > 100 µM (inactive) | > 100 µM (inactive) | > 100 µM (inactive) | > 100 | > 100 µM (inactive) | > 100 µM (inactive) | > 100 µM (inactive) | – | > 100 µM (inactive) | > 100 µM (inactive) | > 100 µM (inactive) |
| CN(C)CCNC(=O)c1cccc2nc3cc(Cl)ccc3nc12 | 5.94 µM (inactive) | 4.59 µM (inactive) | 2.86 µM (inactive) | – | 1.99 µM (inactive) | 1.36 µM (inactive) | 2.47 µM (inactive) | 3 µM (inactive) | 3.25 µM (inactive) | 3.07 µM (inactive) | 2.15 µM (inactive) | 2.43 | 2.7 µM (inactive) | 0.378 µM (active) | 0.531 µM (active) | 1.85 µM (inactive) | 2.14 µM (inactive) | – | – |
| N#C/N=C(/N)c1sc2nc3c(c(-c4ccc(Br)cc4)c2c1N)CCCC3 | 28.1 µM (inactive) | 14.5 µM (inactive) | 24.2 µM (inactive) | 35 µM (inactive) | 24.8 µM (inactive) | 18.5 µM (inactive) | 13.2 µM (inactive) | 21.8 µM (inactive) | 11.1 µM (inactive) | 17.1 µM (inactive) | 17.7 µM (inactive) | 10.2 | 33.1 µM (inactive) | 11.7 µM (inactive) | 2.64 µM (inactive) | – | – | 21 µM (inactive) | – |
| CN(C)C(=S)/N=c1\ss/c(=N\S(=O)(=O)c2ccccc2)n1C | > 100 µM (inactive) | > 100 µM (inactive) | > 100 µM (inactive) | > 100 µM (inactive) | > 100 µM (inactive) | > 100 µM (inactive) | > 100 µM (inactive) | > 100 µM (inactive) | > 100 µM (inactive) | > 100 µM (inactive) | > 100 µM (inactive) | > 100 | > 100 µM (inactive) | > 100 µM (inactive) | > 100 µM (inactive) | > 100 µM (inactive) | > 100 µM (inactive) | – | – |
| CCOC(=O)[C@@H]1ON2O[C@H](OC3CCCCC3c3ccccc3)C[C@H]3OC(=O)[C@@H]1C32 (some centres undefined) | > 100 µM (inactive) | > 100 µM (inactive) | > 100 µM (inactive) | > 100 µM (inactive) | > 100 µM (inactive) | > 100 µM (inactive) | – | > 100 µM (inactive) | > 100 µM (inactive) | > 100 µM (inactive) | > 100 µM (inactive) | > 100 | > 100 µM (inactive) | > 100 µM (inactive) | > 100 µM (inactive) | – | > 100 µM (inactive) | > 100 µM (inactive) | > 100 µM (inactive) |
| Nc1ncnc2c1ncn2C1OC(CSCC(F)(F)F)C(O)C1O (centres undefined) | > 100 µM (inactive) | > 100 µM (inactive) | > 100 µM (inactive) | > 100 µM (inactive) | > 100 µM (inactive) | > 100 µM (inactive) | > 100 µM (inactive) | > 100 µM (inactive) | > 100 µM (inactive) | > 100 µM (inactive) | > 100 µM (inactive) | > 100 | > 100 µM (inactive) | > 100 µM (inactive) | > 100 µM (inactive) | > 100 µM (inactive) | > 100 µM (inactive) | – | – |
| CCCCOCc1cc(CN2CCN(C)CC2)c(O)c2ncccc12 | 67.6 µM (inactive) | 24.6 µM (inactive) | 12.5 µM (inactive) | 16.2 µM (inactive) | 17.8 µM (inactive) | 31.6 µM (inactive) | 25.3 µM (inactive) | 12.5 µM (inactive) | 4.17 µM (inactive) | 3.29 µM (inactive) | 36.6 µM (inactive) | 2.77 | > 100 µM (inactive) | 4.79 µM (inactive) | 3.49 µM (inactive) | 21.3 µM (inactive) | 14.4 µM (inactive) | – | – |
